Patent US5688936A, “Vesicle membrane transport proteins” (priority 1993, dated 1997)
“Also recorded” adds a separate entry of the source. Where two headings read alike, the source gives them in different places.

Tests used:
[1] = test system: vesicular amine transport protein; conditions: cited from earlier work
[2] = test system: amines and tyrosine hydroxylase; conditions: cited from earlier work
[3] = biological target: T1, chromaffin granule amine transport protein (Rattus norvegicus, UniProt Q01818); assay: Quantitative [3H]dopamine transport assay with mpp^res CHO cell homogenate; format: biochemical; conditions: dose-response, 2-minute incubation (FIG. 15C)
T1 sequence (Q01818 1-521): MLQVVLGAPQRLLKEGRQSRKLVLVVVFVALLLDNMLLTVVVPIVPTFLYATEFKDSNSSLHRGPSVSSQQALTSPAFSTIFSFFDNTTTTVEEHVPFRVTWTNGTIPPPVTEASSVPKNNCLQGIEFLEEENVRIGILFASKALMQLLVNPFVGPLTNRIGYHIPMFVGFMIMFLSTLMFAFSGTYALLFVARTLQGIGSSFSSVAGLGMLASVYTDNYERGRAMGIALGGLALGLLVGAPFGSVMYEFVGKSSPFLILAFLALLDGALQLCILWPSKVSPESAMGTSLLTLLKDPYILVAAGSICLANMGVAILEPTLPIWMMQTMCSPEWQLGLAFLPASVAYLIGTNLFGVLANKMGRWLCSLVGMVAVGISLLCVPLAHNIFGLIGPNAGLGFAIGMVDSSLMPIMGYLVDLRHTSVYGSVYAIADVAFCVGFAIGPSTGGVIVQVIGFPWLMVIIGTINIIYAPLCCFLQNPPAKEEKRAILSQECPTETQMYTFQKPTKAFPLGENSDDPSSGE
Protocol: The quantity of label bound is measured after filtration of the assay mixture. Preferably, the label is a radioactive label. […] This can be done by standard graphic kinetic techniques such as the Lineweaver-Burke plot.
Incubation was performed at 29° C. for the time period indicated (from 2 minutes to 30 minutes). The assay was terminated by dilution in cold assay buffer followed by filtration through 0.2 μm Supor™ 200 membranes (Gelman, Ann Arbor, Mich.) and the bound radioactivity was measured. The cells used for the quantitative assay are selected in MPP^+ or screened with antibody to ensure that they express the transporter at high levels, as it is difficult to measure activity in this assay at low levels of transporter expression.
The quantitative transport test was performed as described above on wild-type CHO cells and mpp^res CHO cells.

[4] = test system: transfected CHO cells; assay: Survival/selection/growth of transfected CHO cells in MPP+; format: cell-based, Chinese hamster; conditions: reserpine concentration not stated
Protocol: Using the above methods, the PC12 cDNA library constructed in the plasmid expression vector CDM8 was transfected into CHO cells. Using the selectable marker RSV- neo (Walker, Weizmann Institute, Israel), […] independent stable transformants were obtained after selection in the neomycin analogue G418 at 400 μg/ml effective dose. These cells were then selected at 40% confluence in 1 mM MPP^+. […] However, at four weeks, a colony of cells without refractile inclusions appeared and rapidly covered the plate. The apparently normal growth of these cells in the presence of 1 mM MPP^+ stands in marked contrast to all of the resistant clones obtained without transfection, which grew very slowly if at all. […] However, at 1 mM MPP^+, the resistant cells did show some toxicity, particularly when the assay was performed at higher cell density.
To identify the cDNA sequences responsible for conferring resistance to MPP^+, integrated plasmids were rescued from the primary CHO transformant obtained as described above in Example 1. […] The primary MPP^+ -resistant CHO transformant was amplified in culture and following cell lysis in 5M guanidinium isothiocyanate, the high molecular weight DNA prepared by repeated precipitation in isopropanol. After digestion with Not I, which cleaves the CDM8 vector once downstream of the cDNA insertion site as well as at rare eight-nucleotide recognition sites elsewhere in the genome, the DNA was religated and transformed into E. coli by electroporation as described by Stern-Bach et al., J. Biol. Chem. 265:3961-3966 (1990). Four pools of the derived plasmids containing approximately 50 colonies each were transfected into CHO cells and after two days were selected in 1 mM MPP^+. Four weeks later, one pool gave rise to several MPP^+ -resistant colonies, two pools gave rise to 1-2 colonies and the fourth pool and CDM8 vector gave rise to no healthy, resistant colonies. Restriction enzyme analysis of the plasmids in the pool conferring the highest frequency of resistance to MPP^+ indicated three independent clones of 1.0, 1.3 and 2.5 kb. […]

[5] = test system: PC12 cells; assay: cells; conditions: Rattus norvegicus, PC-12, 1 h, read-out: [^3 H]-Dopamine Uptake (PC12)
Protocol: The effects of various pharmacologic agents were tested to determine whether the properties of the protein encoded by the mpp^res cDNA corresponded with those expected for the chromaffin granule amine transport protein. […] The cells were pre-incubated in Krebs-Ringer buffer containing 1 μM pargyline and the dose of the drug indicated for 15 minutes. […] Values were determined from three separate wells and the mean was expressed as percent of control uptake±standard deviation.

## COC(=O)[C@H]1[C@H]2C[C@@H]3c4[nH]c5cc(OC)ccc5c4CCN3C[C@H]2C[C@@H](OC(=O)c2cc(OC)c(OC)c(OC)c2)[C@@H]1OC [reserpine]
[1]
  inhibition of vesicular amine transport: inhibits
[1]; listed as Reserpine
  inhibition of vesicular amine transport: inhibit this transport activity
[2]
  potentiation of amine depletion and reduction in tyrosine hydroxylase by MPP+: can potentiate the depletion of amines and reduction in tyrosine hydroxylase by MPP^+
[3]
  inhibition of dopamine transport: inhibition by both reserpine and tetrabenazine
[4]
  reversal of MPP+ resistance of transformants: reversal of MPP^+ resistance; also recorded: reversible; also recorded: reversed
[5]
  activity at 1 µM: 23 ± 2%
